Results from PMC3985299, “Single Ascending Dose Safety and Pharmacokinetics of CDRI-97/78: First-in-Human Study of a Novel Antimalarial Drug” (Malaria Research and Treatment, 2014).
Several values for one entry are separate records, joined by “and”; a condition that tells them apart may be missing. Identical values can stand only once. Like-named read-outs stand apart in the source and are kept apart here.

What was measured:
[1] = Single oral dose (200 mg) pharmacokinetic study, plasma LC-MS/MS, noncompartmental analysis; format: in vivo, human
Protocol: For pharmacokinetic (PK) study, eligible participants were admitted and housed in the clinical pharmacology unit an evening prior to the PK study. A standard dinner was served and a fasting condition for at least 10 hrs prior to dosing and 4 hrs after dosing was ensured. A peripheral forearm vein was cannulated for sampling for the PK analysis. 200 mg of the study drug was administered with 300 mL of water. The time of actual dose administration to the nearest minute was recorded. 2.5 mL of blood was collected from the indwelling cannula at 0 (before dose), 0.25, 0.5, 0.75, 1, 1.5, 2, 4, 6, 8, 12, 18, 24, 48, 72, 96, 120, and 144 hrs (after dose). 10 mL of additional blood was collected at 0 (before dose) and 24 hr (after dose) for laboratory parameters for safety assessment and PK control sample. A time window of ±2 minutes was permitted for collecting the post dose samples from the scheduled time for PK analysis. Plasma was separated from blood sample intended for PK analysis, within 1 hour of blood sampling, by centrifugation at 2000 rpm for 10 min at 4°C. Samples were stored at −80°C pending transportation. Heparinised blood samples were transported to the laboratory within 7 days of collection. Quantitative analyses of clinical phase ascending dose and single dose PKs samples were done at GLP lab of Pharmacokinetics and Metabolism Division, CDRI, Lucknow, India. α-Arteether was used as an internal standard and all the analyses were performed as per the published method by Singh et al. 2009 [19]. Acceptance criteria for analytical runs were fixed as per internationally approved guidelines. Data acquisition and quantitation were performed using analyst software version 1.4 (Applied Biosystems, MDS SCIEX Toronto, Canada). PK parameters were estimated by using WinNonlin software (Version 1.5, Pharsight Corporation, Mountain View, CA). Oral data were best fitted in noncompartmental model. The individual plasma concentration-time profiles were subjected to noncompartmental analysis to determine various PK parameters. The PK parameters included the terminal elimination half-life (T 1/2), maximum plasma concentration (C max), time to reach maximum plasma concentration (T max), area under the curve (AUC0–∞), and mean residence time (MRT).

[2] = set-up: method as in printed; conditions: background statement, ref not given; cited from earlier work
[3] = 97/63 after oral 97/78 200 mg single dose, Mean ± SEM, N = 16
[4] = 97/63 in plasma after oral 97/78 200 mg single dose, individual volunteers 1-16
[5] = human, plasma, po, 200 mg, 97/63 after oral 97/78 200 mg single dose, Mean ± SEM, N = 16

AUC0−∞ [1, 3]: 878.74 ± 133.15 ng·h/mL
MRT [1, 3]: 13.77 ± 2.05 h
First time at which quantified in plasma ([1]; after oral 97/78 200 mg): 0.5 h
Last time at which quantified in plasma ([1]; after oral 97/78 200 mg, two volunteers up to 72 h): up to 48 h
Cmax [1, 5]: 144 ± 28.3 ng/mL
Tmax [1, 5]: 2.28 ± 0.27 h
AUC(0-inf) ([1]; male, human, plasma, po, 200 mg, 97/63 after oral 97/78 200 mg single dose, Mean ± SEM, N = 16): 845 ± 143 ng·h/mL
MRT ([1]; male, human, plasma, po, 200 mg, 97/63 after oral 97/78 200 mg single dose, Mean ± SEM, N = 16, read-out: MRT): 9.73 ± 1.06 h
Cmax ([1]; male, human, plasma, po, 200 mg, 97/63 after oral 97/78 200 mg, mean, as given in text without unit): 144 ± 28.3 ng/mL
Structure (SMILES): C=C(c1ccc(OC(C)(C)CO)cc1)C1COC2(OO1)C1CC3CC(C1)CC2C3 (stereo not drawn) [97/63]
AUC0−∞ [1, 4]: 788.7 ng·h/mL and 1898.9 ng·h/mL and 935 ng·h/mL and 356.1 ng·h/mL and 583.6 ng·h/mL and 696.8 ng·h/mL and 833.1 ng·h/mL and 984.1 ng·h/mL and 104.8 ng·h/mL and 1644 ng·h/mL and 602.6 ng·h/mL and 785 ng·h/mL and 1522.6 ng·h/mL and 207.9 ng·h/mL and 1604.9 ng·h/mL and 511.7 ng·h/mL
C max [1, 4]: 172 ng/mL and 295 ng/mL and 47.4 ng/mL and 50.4 ng/mL and 65.4 ng/mL and 105 ng/mL and 55 ng/mL and 123 ng/mL and 20.1 ng/mL and 373 ng/mL and 187 ng/mL and 149 ng/mL and 355 ng/mL and 42.6 ng/mL and 202 ng/mL and 60.9 ng/mL
MRT [1, 4]: 12.57 h and 9.76 h and 30.72 h and 14.53 h and 11.26 h and 18.37 h and 32.20 h and 18.52 h and 5.72 h and 13.7 h and 3.53 h and 5.38 h and 14.25 h and 6.42 h and 14.13 h and 9.28 h
T 1/2 [1, 4]: 13.89 h and 11.63 h and 24.26 h and 14.50 h and 10.10 h and 17.73 h and 24.51 h and 18.90 h and 2.17 h and 4.78 h and 2.20 h and 3.88 h and 21.27 h and 3.00 h and 8.94 h and 7.80 h
T max [1, 4]: 1.5 h (5×) and 2 h (6×) and 4 h (4×) and 1 h
Bioavailability [2]: poor
